In ChEMBL document CHEMBL1201862, “PubChem BioAssay data set” (2004):
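Growth conditions: 96-well plates. Treatment: test compound, 48 hours, 5 concentrations. Analysis: linear interpolation between bracketing concentrations; unreached endpoints set to highest concentration. GI50 is the concentration that inhibits growth by half.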 Activity calls are given as the source filed them. No stated cut-off is given here; in the data, active = GI50 up to about 1.1 µM and inactive = higher.

Columns and labels:
Experiment in all cases: NCI anticancer screen, dose series, 48 h
[1] = system: MDA-MB-435
[2] = system: UACC-257
[3] = system: Malme-3M
[4] = system: NCI-H522
[5] = system: BT-549
[6] = system: HOP-62
[7] = system: 786-0
[8] = system: HOP-92
[9] = system: SF-539
[10] = system: DU-145
[11] = system: SK-MEL-2
[12] = system: HCT-15
[13] = system: M14
[14] = system: OVCAR-8
[15] = system: A498
[16] = system: MDA-MB-231
[17] = system: A549
[18] = system: SNB-75
[19] = system: MDA-N

SMILES	GI50 [1]	GI50 [2]	GI50 [3]	GI50 [4]	GI50 [5]	GI50 [6]	GI50 [7]	GI50 [8]	GI50 [9]	GI50 [10]	GI50 [11]	GI50 [12]	GI50 [13]	GI50 [14]	GI50 [15]	GI50 [16]	GI50 [17]	GI50 [18]	GI50 [19]
CC(C)c1ccc(/C=C2/C=C(c3ccc4ccccc4c3)OC2=O)cc1	41.3 µM (inactive)	21 µM (inactive)	15.8 µM (inactive)	10.5 µM (inactive)	33.3 µM (inactive)	> 100 µM (inactive)	> 100 µM (inactive)	37.8 µM (inactive)	> 100 µM (inactive)	> 100 µM (inactive)	19.5 µM (inactive)	72.3 µM	41 µM (inactive)	45.2 µM (inactive)	> 96.2 µM (inactive)	99.8 µM (inactive)	> 89.7 µM (inactive)	> 74.1 µM (inactive)	
CSC1=C(C(=O)Nc2ccc(C)cc2)C(N)=NC1=O	> 100 µM (inactive)	> 100 µM (inactive)					> 100 µM (inactive)	> 100 µM (inactive)	> 100 µM (inactive)	> 100 µM (inactive)		> 100 µM	> 100 µM (inactive)	> 100 µM (inactive)		> 100 µM (inactive)		> 100 µM (inactive)	
C/C(=N/NC(=S)N1CCCCCC1)c1cccc(/C(C)=N\NC(=S)N2CCCCCC2)n1	1.84 µM (inactive)	1.58 µM (inactive)	0.938 µM (active)	2.62 µM (inactive)		1.89 µM (inactive)	1.3 µM (inactive)	1.7 µM (inactive)	1.56 µM (inactive)	2.29 µM (inactive)	1.67 µM (inactive)	2.09 µM	1.71 µM (inactive)	1.55 µM (inactive)	1.49 µM (inactive)	1.7 µM (inactive)	2.07 µM (inactive)	1.95 µM (inactive)	2.23 µM (inactive)
CCCCCCCc1c(Cl)nc(Cl)nc1Cl	2.65 µM (inactive)	10.4 µM (inactive)	3.01 µM (inactive)	1.74 µM (inactive)		18.6 µM (inactive)	3.56 µM (inactive)	4.5 µM (inactive)	9.82 µM (inactive)	14.3 µM (inactive)		3.66 µM	2.13 µM (inactive)	2.36 µM (inactive)	20.1 µM (inactive)	3.52 µM (inactive)	16.9 µM (inactive)	14.6 µM (inactive)	3.75 µM (inactive)
O=c1[nH]nc(Cc2ccc(Cl)cc2)n1O	> 100 µM (inactive)	> 100 µM (inactive)	> 100 µM (inactive)	> 100 µM (inactive)		> 100 µM (inactive)	> 100 µM (inactive)	> 100 µM (inactive)	> 100 µM (inactive)	> 100 µM (inactive)	> 100 µM (inactive)	> 100 µM	> 100 µM (inactive)	> 100 µM (inactive)	> 100 µM (inactive)	> 100 µM (inactive)	> 100 µM (inactive)		> 100 µM (inactive)
Cc1ccc2c(c1)CC1(Cc3cccc(C)c3C1=O)C2=O (centres undefined)	> 10 µM (inactive)	> 100 µM (inactive)	85.5 µM (inactive)	82.6 µM (inactive)		> 100 µM (inactive)	> 100 µM (inactive)	50.7 µM (inactive)	> 100 µM (inactive)	> 100 µM (inactive)		> 100 µM	64.4 µM (inactive)	> 100 µM (inactive)	> 100 µM (inactive)	19.4 µM (inactive)	> 100 µM (inactive)	> 100 µM (inactive)	> 10 µM (inactive)
C/C(=C/CNc1ncnc2c1ncn2CCC#N)CO	> 100 µM (inactive)	> 100 µM (inactive)	> 100 µM (inactive)	> 100 µM (inactive)		> 100 µM (inactive)	> 100 µM (inactive)	> 100 µM (inactive)	> 100 µM (inactive)	> 100 µM (inactive)			> 100 µM (inactive)	> 100 µM (inactive)	> 100 µM (inactive)	> 100 µM (inactive)	> 100 µM (inactive)	> 100 µM (inactive)	> 100 µM (inactive)
CN(C)c1nc2oc(-c3ccccc3)c(-c3ccccc3)c2c2nncn12	> 100 µM (inactive)	> 100 µM (inactive)		> 100 µM (inactive)			> 100 µM (inactive)	> 100 µM (inactive)	> 100 µM (inactive)	> 100 µM (inactive)		> 100 µM	> 100 µM (inactive)	> 100 µM (inactive)	> 100 µM (inactive)	> 100 µM (inactive)	> 100 µM (inactive)	53.5 µM (inactive)	
COC1/C=C/C(C)C(C(C)C(OC)C(C)CCC(=O)C(C)C(CC(=O)O)OC)OC(=O)/C=C/C=C(\C)CC(OC)C(OC)C2=CC(=O)O[C@@H](C(C)C(OC)CC(OC)/C=C/C(C)C(O)C1)[C@H]2O (some centres undefined)	0.0681 µM (active)	0.0993 µM (active)				0.121 µM (active)	0.0223 µM (active)	0.0339 µM (active)		0.053 µM (active)	0.198 µM (active)	0.0611 µM	0.0286 µM (active)	0.0337 µM (active)	0.0815 µM (active)	0.083 µM (active)	0.0419 µM (active)	0.0311 µM (active)	0.0785 µM (active)
Cc1c(C(=O)/C=C/c2ccc(N(C)C)cc2)c(=O)n(-c2ccccc2)n1C		> 100 µM (inactive)	> 100 µM (inactive)	> 100 µM (inactive)			> 100 µM (inactive)	> 100 µM (inactive)	> 100 µM (inactive)		> 100 µM (inactive)	> 100 µM		> 100 µM (inactive)	> 100 µM (inactive)		> 100 µM (inactive)		
Cc1cc(C)n(C(=O)CSc2nc3ccc(I)cc3c(=O)n2Cc2ccccc2)n1	73.6 µM (inactive)	33.9 µM (inactive)		20.1 µM (inactive)		31.9 µM (inactive)	28.3 µM (inactive)	15.5 µM (inactive)	86.9 µM (inactive)	42 µM (inactive)	47.4 µM (inactive)	30.4 µM	97.1 µM (inactive)	24.9 µM (inactive)	22.9 µM (inactive)	23.3 µM (inactive)	41 µM (inactive)	25.3 µM (inactive)	> 100 µM (inactive)
C=C[C@@]1(C)CC2CC[C@]3(C)C(C)=CC(=O)CC3[C@]2(C)CC1O (some centres undefined)	> 100 µM (inactive)	> 100 µM (inactive)	> 100 µM (inactive)	32.7 µM (inactive)		> 100 µM (inactive)	> 100 µM (inactive)	> 100 µM (inactive)	> 100 µM (inactive)	> 100 µM (inactive)	> 100 µM (inactive)	> 100 µM	> 100 µM (inactive)		> 100 µM (inactive)		> 100 µM (inactive)		
CC(=O)Nc1ccc(S(=O)(=O)Nc2nnc(S(N)(=O)=O)s2)cc1	> 100 µM (inactive)		> 100 µM (inactive)	> 100 µM (inactive)	> 100 µM (inactive)		> 100 µM (inactive)	> 100 µM (inactive)	> 100 µM (inactive)	> 100 µM (inactive)		> 100 µM	> 100 µM (inactive)		> 100 µM (inactive)	> 100 µM (inactive)	> 100 µM (inactive)	> 100 µM (inactive)	
